The text below walks through data of ChEMBL document CHEMBL6134887, “Linker and Head-Group Exploration of Anti-MRSA Triaromatic Pleuromutilins” (J Med Chem, 2025).

Values after ≈ are worked out from the molar mass of the structure shown.

The test system of the assay is Staphylococcus aureus. The assay can be described thus: Antibacterial activity against methicillin resistant Staphylococcus aureus USA300 FPR3757 assessed as inhibition of bacterial growth incubated for 20 to 24 hrs by microbroth serial dilution method. Type of assay: functional. The settings on record: time 20-24 hrs, read-out: MIC100. In general terms: In broth dilution the organism is exposed to a series of concentrations in liquid medium.
As for `C=C[C@]1(C)C[C@@H](OC(=O)Cn2cc(-c3ccc(Cn4cnc(CO)c4)nc3)nn2)[C@]2(C)[C@H](C)CC[C@]3(CCC(=O)[C@H]32)[C@@H](C)[C@@H]1O`, the MIC was determined as 2 µg/mL (≈ 3.24 µM).

`C=C[C@]1(C)C[C@@H](OC(=O)Cn2cc(-c3ccc(Cn4ccnc4N)cc3)nn2)[C@]2(C)[C@H](C)CC[C@]3(CCC(=O)[C@H]32)[C@@H](C)[C@@H]1O`: the MIC was 0.5 µg/mL (≈ 0.832 µM).

On to `C=C[C@]1(C)C[C@@H](OC(=O)Cn2cc(-c3cccc(Oc4nc(N)nc5[nH]cnc45)c3)nn2)[C@]2(C)[C@H](C)CC[C@]3(CCC(=O)[C@H]32)[C@@H](C)[C@@H]1O`, for which the MIC was 0.12 µg/mL (≈ 0.183 µM).

On to `C=C[C@]1(C)C[C@@H](OC(=O)Cn2cc(-c3ccc(CNc4cc(N)ncn4)nc3)nn2)[C@]2(C)[C@H](C)CC[C@]3(CCC(=O)[C@H]32)[C@@H](C)[C@@H]1O`, for which the MIC came out at 0.06 µg/mL (≈ 0.0954 µM).

Regarding `C=C[C@]1(C)C[C@@H](OC(=O)Cn2cc(-c3cccc(NC(=O)c4ccc(OC)nc4)c3)nn2)[C@]2(C)[C@H](C)CC[C@]3(CCC(=O)[C@H]32)[C@@H](C)[C@@H]1O`, the MIC is 0.12 µg/mL (≈ 0.183 µM).

Consider `C=C[C@]1(C)C[C@@H](OC(=O)Cn2cc(-c3ccc(Cn4cnc5c(=O)[nH]c(N)nc54)nc3)nn2)[C@]2(C)[C@H](C)CC[C@]3(CCC(=O)[C@H]32)[C@@H](C)[C@@H]1O`, for which the MIC was determined as 8 µg/mL (≈ 11.9 µM).

With `C=C[C@]1(C)C[C@@H](OC(=O)Cn2cc(-c3ccc(Cn4ccc(N)nc4=O)nc3)nn2)[C@]2(C)[C@H](C)CC[C@]3(CCC(=O)[C@H]32)[C@@H](C)[C@@H]1O`, the MIC came to 8 µg/mL (≈ 12.7 µM).

Take `C=C[C@]1(C)C[C@@H](OC(=O)Cn2cc(-c3ccc(Cn4ccc(=O)[nH]c4=O)cc3)nn2)[C@]2(C)[C@H](C)CC[C@]3(CCC(=O)[C@H]32)[C@@H](C)[C@@H]1O`: the MIC worked out at 0.12 µg/mL (≈ 0.191 µM).

On to `C=C[C@]1(C)C[C@@H](OC(=O)Cn2cc(-c3cccc(NC(=O)c4ccccc4)c3)nn2)[C@]2(C)[C@H](C)CC[C@]3(CCC(=O)[C@H]32)[C@@H](C)[C@@H]1O`, for which the MIC was found to be 0.25 µg/mL (≈ 0.4 µM).

On to `C=C[C@]1(C)C[C@@H](OC(=O)Cn2cc(-c3ccc(Cn4cnc5c(=O)[nH]cnc54)cc3)nn2)[C@]2(C)[C@H](C)CC[C@]3(CCC(=O)[C@H]32)[C@@H](C)[C@@H]1O`, for which the MIC was 0.06 µg/mL (≈ 0.0918 µM).

On to `C=C[C@]1(C)C[C@@H](OC(=O)Cn2cc(-c3cccc(Oc4ncnc5[nH]cnc45)c3)nn2)[C@]2(C)[C@H](C)CC[C@]3(CCC(=O)[C@H]32)[C@@H](C)[C@@H]1O`, for which the MIC stood at 0.12 µg/mL (≈ 0.188 µM).

As to `C=C[C@]1(C)C[C@@H](OC(=O)Cn2cc(-c3ccc(Cn4cncc4CO)nc3)nn2)[C@]2(C)[C@H](C)CC[C@]3(CCC(=O)[C@H]32)[C@@H](C)[C@@H]1O`, the MIC is 2 µg/mL (≈ 3.24 µM).

Turning to `C=C[C@]1(C)C[C@@H](OC(=O)Cn2cc(-c3ccc(Cn4cnc5c(=O)[nH]c(N)nc54)cc3)nn2)[C@]2(C)[C@H](C)CC[C@]3(CCC(=O)[C@H]32)[C@@H](C)[C@@H]1O`, the MIC was determined as 2 µg/mL (≈ 2.99 µM).

Turning to `C=C[C@]1(C)C[C@@H](OC(=O)Cn2cc(-c3ccc(C(O)c4ccc5c(N)ncnn45)cc3)nn2)[C@]2(C)[C@H](C)CC[C@]3(CCC(=O)[C@H]32)[C@@H](C)[C@@H]1O` (stereo partly drawn), the MIC is 0.06 µg/mL (≈ 0.0898 µM).

On to `C=C[C@]1(C)C[C@@H](OC(=O)Cn2cc(-c3cncc(NC(=O)c4c[nH]c(=O)cn4)c3)nn2)[C@]2(C)[C@H](C)CC[C@]3(CCC(=O)[C@H]32)[C@@H](C)[C@@H]1O`, for which the MIC stood at 1 µg/mL (≈ 1.55 µM).

Consider `C=C[C@]1(C)C[C@@H](OC(=O)Cn2cc(-c3ccc(Cn4cc(C)c(=O)[nH]c4=O)nc3)nn2)[C@]2(C)[C@H](C)CC[C@]3(CCC(=O)[C@H]32)[C@@H](C)[C@@H]1O`, for which the MIC was found to be 0.12 µg/mL (≈ 0.186 µM).

Take `C=C[C@]1(C)C[C@@H](OC(=O)Cn2cc(-c3ccc(NC(=O)c4ccccc4)cc3)nn2)[C@]2(C)[C@H](C)CC[C@]3(CCC(=O)[C@H]32)[C@@H](C)[C@@H]1O`: the MIC was 4 µg/mL (≈ 6.4 µM).

For the compound `C=C[C@]1(C)C[C@@H](OC(=O)Cn2cc(-c3cncc(C(=O)Nc4ccc(N)cc4)c3)nn2)[C@]2(C)[C@H](C)CC[C@]3(CCC(=O)[C@H]32)[C@@H](C)[C@@H]1O`, the MIC came to 0.12 µg/mL (≈ 0.187 µM).
